Reference: PMC4033217, “Characterization of Novel PI3Kδ Inhibitors as Potential Therapeutics for SLE and Lupus Nephritis in Pre-Clinical Studies” (Frontiers in Immunology, 2014)
Like-named read-outs stand apart in the source and are kept apart here.

Key:
PI3K α = PI3K α (Homo sapiens, UniProt P42336); test: Scintillation proximity assay, PI3Kα enzymatic activity; format: biochemical; conditions: 65 μM ATP, read-out: Enzymatic potency IC50
[1] = Human PK prediction based on allometric scaling; conditions: data not shown
pAkt = test: Imax PK/PD model of BCR activation-induced pAkt response; conditions: mouse, estimated in vivo PD parameter (pAkt)
Source text: An Imax PK/PD model describing BCR activation-induced pAkt response was established using data from in vitro and ex vivo mouse whole blood assays.

[2] = system: CD4+CD45RA− memory T-cells; test: T-cell cytokine release assay (anti-CD3/anti-CD28); format: cell-based, human; conditions: for IC50: Homo sapiens, T-cell, 120 h, memory T-cells, anti-CD3 and anti-CD28, 5 days
Method: Purified T-cells were incubated with PI3Kδ inhibitors for 1 h, and stimulated with 5 μg/ml anti-CD3 and 2 μg/ml anti-CD28 for 5 days. Cytokines in the supernatants were measured with Luminex® xMAP® multiplex bead assay kits (Bio-Rad, Hercules, CA, USA).

PI3K β = PI3K β (Homo sapiens, UniProt P42338); test: Scintillation proximity assay, PI3Kβ enzymatic activity; format: biochemical; conditions: 65 μM ATP, read-out: Enzymatic potency IC50
PI3K β, sequence (P42338 whole entry): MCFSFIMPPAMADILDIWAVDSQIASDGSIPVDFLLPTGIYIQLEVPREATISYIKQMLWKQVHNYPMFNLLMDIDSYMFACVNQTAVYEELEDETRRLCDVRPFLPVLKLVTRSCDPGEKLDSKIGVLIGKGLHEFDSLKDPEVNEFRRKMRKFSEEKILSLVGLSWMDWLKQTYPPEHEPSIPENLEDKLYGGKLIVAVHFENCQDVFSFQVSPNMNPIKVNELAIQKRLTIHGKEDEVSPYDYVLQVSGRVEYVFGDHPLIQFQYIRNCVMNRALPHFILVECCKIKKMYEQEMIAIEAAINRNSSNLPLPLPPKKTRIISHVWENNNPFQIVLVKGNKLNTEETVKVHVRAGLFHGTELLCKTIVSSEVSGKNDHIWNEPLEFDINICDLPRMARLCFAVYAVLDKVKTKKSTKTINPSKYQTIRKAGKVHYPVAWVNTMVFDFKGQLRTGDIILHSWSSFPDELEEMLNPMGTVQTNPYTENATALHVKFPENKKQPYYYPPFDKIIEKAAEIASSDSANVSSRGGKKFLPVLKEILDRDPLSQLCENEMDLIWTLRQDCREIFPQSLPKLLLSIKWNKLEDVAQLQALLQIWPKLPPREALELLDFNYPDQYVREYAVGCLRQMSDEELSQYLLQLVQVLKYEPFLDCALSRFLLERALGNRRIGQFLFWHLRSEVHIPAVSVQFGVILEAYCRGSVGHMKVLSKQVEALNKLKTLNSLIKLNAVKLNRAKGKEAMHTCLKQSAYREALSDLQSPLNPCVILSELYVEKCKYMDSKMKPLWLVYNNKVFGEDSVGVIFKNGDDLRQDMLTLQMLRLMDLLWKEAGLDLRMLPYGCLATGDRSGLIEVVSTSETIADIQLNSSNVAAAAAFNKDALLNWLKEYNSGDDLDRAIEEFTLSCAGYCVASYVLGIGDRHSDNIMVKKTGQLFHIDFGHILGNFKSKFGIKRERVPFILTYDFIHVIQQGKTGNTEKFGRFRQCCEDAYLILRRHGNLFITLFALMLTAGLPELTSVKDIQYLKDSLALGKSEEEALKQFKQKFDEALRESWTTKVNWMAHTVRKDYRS
PI3K β, sequence (P27986 whole entry partner): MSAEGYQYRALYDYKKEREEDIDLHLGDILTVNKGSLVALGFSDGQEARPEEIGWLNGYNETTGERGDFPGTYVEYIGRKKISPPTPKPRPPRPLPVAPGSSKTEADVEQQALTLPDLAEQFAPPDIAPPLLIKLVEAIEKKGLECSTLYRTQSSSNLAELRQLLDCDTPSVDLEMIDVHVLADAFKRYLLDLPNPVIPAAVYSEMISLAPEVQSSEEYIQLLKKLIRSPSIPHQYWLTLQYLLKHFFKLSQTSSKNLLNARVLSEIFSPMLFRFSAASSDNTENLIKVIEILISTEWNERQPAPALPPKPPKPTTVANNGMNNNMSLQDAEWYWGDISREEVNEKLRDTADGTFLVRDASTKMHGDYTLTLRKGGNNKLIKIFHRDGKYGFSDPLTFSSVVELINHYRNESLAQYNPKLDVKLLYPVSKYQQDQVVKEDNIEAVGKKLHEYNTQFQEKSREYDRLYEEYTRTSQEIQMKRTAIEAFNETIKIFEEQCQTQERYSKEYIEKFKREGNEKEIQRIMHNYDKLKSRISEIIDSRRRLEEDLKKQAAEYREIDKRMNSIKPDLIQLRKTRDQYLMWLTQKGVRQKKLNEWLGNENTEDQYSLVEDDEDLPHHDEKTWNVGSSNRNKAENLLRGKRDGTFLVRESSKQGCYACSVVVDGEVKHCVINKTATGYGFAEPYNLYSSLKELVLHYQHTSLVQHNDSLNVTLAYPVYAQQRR

[3] = system: CD69 on CD19+ cells, PBMCs from SLE patients; test: Anti-IgM-induced CD69 up-regulation in PBMCs from SLE patients; format: cell-based; conditions: Homo sapiens, PBMC, 18 h, SLE patient PBMC, anti-IgM 18 h
Method: Heparinized human blood or buffy-coat prepared from healthy donors was obtained from the “Center de transfusion sanguine” of Geneva (Switzerland). Cryopreserved PBMCs from SLE patients were obtained from Asterand (Detroit, MI, USA). […] Studies were approved by Merck Serono ethics committee.
(A) Peripheral blood from healthy donors were collected in heparinized tubes and stimulated with anti-IgM for 5 min. Intracellular pAkt gated on CD19^+ cells were analyzed by flow cytometry. […] CD69 up-regulation on CD19^+ cells were analyzed by flow cytometry. Mean fluorescent intensity (MFI) from basal and stimulated conditions without inhibitor were used as 100% of activity. […]

PI3K γ = PI3K γ (Homo sapiens, UniProt P48736); test: Scintillation proximity assay, PI3Kγ enzymatic activity; format: biochemical; conditions: 65 μM ATP, read-out: Enzymatic potency IC50
PI3K γ, sequence (P48736 whole entry): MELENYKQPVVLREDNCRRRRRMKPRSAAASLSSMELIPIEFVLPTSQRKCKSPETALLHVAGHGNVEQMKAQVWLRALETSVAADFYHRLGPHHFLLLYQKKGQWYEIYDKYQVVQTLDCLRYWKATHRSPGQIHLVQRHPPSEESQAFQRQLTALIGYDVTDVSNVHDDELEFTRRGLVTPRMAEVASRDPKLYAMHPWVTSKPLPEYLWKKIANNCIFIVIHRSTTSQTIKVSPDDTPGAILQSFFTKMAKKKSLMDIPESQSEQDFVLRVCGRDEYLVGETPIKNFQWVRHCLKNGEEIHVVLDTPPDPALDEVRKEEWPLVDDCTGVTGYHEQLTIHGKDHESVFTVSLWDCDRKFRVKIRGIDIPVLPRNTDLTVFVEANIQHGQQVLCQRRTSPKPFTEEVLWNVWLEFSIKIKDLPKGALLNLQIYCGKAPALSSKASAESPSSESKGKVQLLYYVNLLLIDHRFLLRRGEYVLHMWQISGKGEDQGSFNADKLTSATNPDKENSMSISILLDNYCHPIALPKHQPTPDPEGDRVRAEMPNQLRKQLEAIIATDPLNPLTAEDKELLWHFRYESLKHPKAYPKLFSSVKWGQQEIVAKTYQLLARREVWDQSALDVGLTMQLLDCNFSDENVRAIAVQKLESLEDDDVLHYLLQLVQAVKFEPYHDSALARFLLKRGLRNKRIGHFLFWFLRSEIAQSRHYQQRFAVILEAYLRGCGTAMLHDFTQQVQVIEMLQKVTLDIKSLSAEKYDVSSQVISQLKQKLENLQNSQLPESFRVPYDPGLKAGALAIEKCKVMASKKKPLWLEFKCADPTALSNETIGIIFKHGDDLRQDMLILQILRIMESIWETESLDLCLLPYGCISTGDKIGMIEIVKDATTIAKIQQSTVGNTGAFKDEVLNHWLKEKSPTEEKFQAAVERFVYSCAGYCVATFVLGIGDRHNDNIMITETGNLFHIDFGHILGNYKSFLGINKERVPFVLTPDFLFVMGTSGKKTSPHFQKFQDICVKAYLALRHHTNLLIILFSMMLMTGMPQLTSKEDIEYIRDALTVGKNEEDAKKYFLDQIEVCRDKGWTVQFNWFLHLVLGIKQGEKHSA

[4] = In vivo pharmacokinetics in mouse; conditions: estimated
[5] = system: CD69 on CD19+ B cells, human whole blood; test: Anti-IgM-induced CD69 in human whole blood; format: cell-based; conditions: B-cell, healthy donors, 18 h, read-out: IC50 anti-IgM-induced CD69 up-regulation
Source text: After red blood cells lysis, CD19^+ cells were gated for CD69 analysis.

[6] = Unbound plasma protein binding, mouse; format: in vitro ADME; conditions: unbound fraction
Source text: 36 CLint: intrinsic clearance in liver microsomes. h/m: human/mouse. Papp: apparent permeability. uPPB:
37 unbound plasma protein binding. […]

[7] = system: CD69 on B220+ B cells, mouse whole blood; test: Anti-IgD-induced CD69 in mouse whole blood (in vitro); format: cell-based; conditions: B-cell
Method: Whole blood withdrawn from naïve C57BL/6N mice (Charles River Laboratories, L’Arbresle, France) were incubated with PI3Kδ inhibitors for 30 min and stimulated with 1/12 goat anti-mouse IgD antiserum (eBioscience, San Diego, CA, USA) for 4 h before staining with anti-B220-PerCP-Cy5.5 and anti-CD69-PE (all BD Biosciences Pharmingen, San Diego, CA, USA) for 30 min at room temperature. After red blood cells lysis, B220^+IgD^+ cells were gated for CD69 analysis.

PI3K α, sequence (P42336 whole entry): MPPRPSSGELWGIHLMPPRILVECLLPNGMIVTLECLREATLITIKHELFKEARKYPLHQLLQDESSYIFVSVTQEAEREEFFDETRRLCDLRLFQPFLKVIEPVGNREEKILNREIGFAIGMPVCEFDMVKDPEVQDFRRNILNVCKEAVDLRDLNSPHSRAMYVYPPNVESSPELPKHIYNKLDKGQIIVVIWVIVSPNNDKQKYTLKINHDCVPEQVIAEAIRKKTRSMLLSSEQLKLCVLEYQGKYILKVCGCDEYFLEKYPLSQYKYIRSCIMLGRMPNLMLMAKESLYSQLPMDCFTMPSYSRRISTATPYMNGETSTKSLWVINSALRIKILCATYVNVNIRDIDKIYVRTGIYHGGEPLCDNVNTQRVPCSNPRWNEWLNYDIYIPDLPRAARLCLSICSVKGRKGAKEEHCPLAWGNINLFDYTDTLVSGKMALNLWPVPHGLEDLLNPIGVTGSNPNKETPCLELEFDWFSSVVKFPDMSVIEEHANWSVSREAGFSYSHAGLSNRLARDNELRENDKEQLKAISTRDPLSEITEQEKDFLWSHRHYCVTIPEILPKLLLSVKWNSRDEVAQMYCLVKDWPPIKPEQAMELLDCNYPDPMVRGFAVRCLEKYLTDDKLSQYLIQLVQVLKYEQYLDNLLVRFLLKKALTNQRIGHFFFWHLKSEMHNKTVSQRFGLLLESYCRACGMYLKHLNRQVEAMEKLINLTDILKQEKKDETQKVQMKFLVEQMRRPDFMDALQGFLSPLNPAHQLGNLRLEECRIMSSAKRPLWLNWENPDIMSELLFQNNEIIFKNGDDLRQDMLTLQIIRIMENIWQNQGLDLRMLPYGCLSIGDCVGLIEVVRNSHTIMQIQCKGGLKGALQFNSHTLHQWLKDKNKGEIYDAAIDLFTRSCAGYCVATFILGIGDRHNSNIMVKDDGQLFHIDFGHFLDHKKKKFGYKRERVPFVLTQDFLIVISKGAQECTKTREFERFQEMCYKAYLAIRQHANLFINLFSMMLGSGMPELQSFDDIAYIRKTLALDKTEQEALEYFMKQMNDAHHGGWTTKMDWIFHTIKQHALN
PI3K α, sequence (P27986 whole entry partner): as the sequence (P27986 whole entry partner) above

- IC50 (PI3K α): 7650 nM
- Predicted human half-life / dosing frequency [1]: predicted to require twice daily dosing
- IC50 (pAkt): 47 nM
- IC50 ([2]; read-out: IC50 IL-6): 23 nM
- IC50 ([2]; read-out: IC50 IL-10): 18 nM
- IC50 ([2]; read-out: IC50 IL-17): 16 nM
- IC50 ([2]; read-out: IC50 TNF-α): 57 nM
- IC50 (PI3K β): 2450 nM
- IC50 (PI3K γ): > 20000 nM
- CL/F ([4]; C57BL/6N, plasma, po): 418 mL/min/kg
- half-life ([4]; C57BL/6N, plasma, po): 36 min
- Ka [4]: 1.6 h⁻¹
- V/F [4]: 5.8 L/kg
- uPPB % [6]: 65%
- IC50 ([7]; average, read-out: average IC50 for CD69): 16 nM
- IC50 ([7]; representative experiment of Figure 5B, read-out: IC50 CD69): 18 nM
Structure (SMILES): O=C(c1nn([C@@H]2CCCN(CCN3CCOCC3)C2)c2c1CS(=O)(=O)c1cc(F)ccc1-2)N1CCOCC1 [MSC2364588, (R)-7-fluoro-3-(morpholin-4-ylcarbonyl)-1-[1-(2-morpholin-4-ylethyl)piperidin-3-yl]-1,4-dihydrothiochro-meno[4,3-c]pyrazole 5,5-dioxide]
- Potency relative to MSC2360844 ([2]; T-cell cytokines): 10 times
- IC50 ([3]; another donor (Figure 4C, right)): 12 nM
- IC50 ([3]; one donor (Figure 4C, left)): 9 nM
- IC50 [5]: 21 nM
